Laboratory results reported in US20240383923A1, “HETEROARYL DERIVATIVE AND USE THEREOF” (VORONOI INC., priority 2022, published 2024).
Where two headings read alike, the source gives them in different places.

Key:
HER2 enzyme = biological target: T1, HER2 enzyme (Homo sapiens, UniProt P04626); assay: Biochemical kinase assay for HER2 (Reaction Biology Corp.); settings: ATP 10 μM, 3-fold dilution from 10 μM
T1 construct: purchased Reaction Biology Corp. (San Diego, USA); outsourced assay service
Description: A biochemical kinase assay for HER2 was conducted through Reaction Biology Corp. (San Diego, USA).

BT-474 cancer cells = assay: Inhibition of BT-474 cell proliferation (CellTiter-Glo); assay type: cell-based; settings: Homo sapiens, BT-474 cells, 120 hours
How it was run: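 BT-474 cells in RPMI-1640 with 20% FBS, seeded 48 h before dosing with 11 three-fold dilutions (final 0.2 nM to 10 μM). Viability read by CellTiter-Glo luminescence 120 h after treatment, triplicate tests. GI50 derived from growth rate (%) versus control.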

N-87 cancer cells = assay: Inhibition of N-87 cell proliferation (CellTiter-Glo); assay type: cell-based; settings: N-87 cells, 72 hours
Description: N-87 cancer cells were cultured by using RPMI-1640 medium with 10% FBS. The N-87 cancer cells were seeded to a white clear bottom 96 well plate (Corning) at 5,000 cells per well 24 hours before the […] cancer cells were treated with Example Compounds. Example Compounds were diluted in dimethylsulfoxide (5-fold diluted, total 11 concentrations) and 0.5 μL each was injected so that the final concentration was […]. For the measurement of living cells, the cells were stored at room temperature for 10 minutes using the CellTiter-Glo cell viability reagent (Promega) after 72 hours after the treatment of Example Compounds, and then the luminescence intensity was measured using the reader (SynergyNeo, Biotek).
The result value was calculated as a cell growth rate (%) compared to a control group. Graphs were plotted and GI50 values were calculated using the GraphPad Prism version 8.0 program, and the results are shown in Table 18 below.

Ba/F3 HER2 T862A cells = assay: Inhibition of transduced Ba/F3 cell proliferation, HER2 T862A; assay type: cell-based; settings: Mus musculus, BaF3, 72 hours, CellTiter-Glo
Description: (§1) Transduced Ba/F3 cells were cultured by adding 1 μg/mL of puromycin (Invitrogen) to a medium (RPMI-1640) containing 10% fetal bovine serum (FBS). 3,000 Ba/F3 HER2 WT cells were seeded to a white clear bottom 96 well plate (Corning) 24 hours before the Ba/F3 HER2 WT cells were treated with Example compounds. For Ba/F3 HER2 L755S, Ba/F3 HER2 L755P, Ba/F3 HER2 T862A, and Ba/F3 HER2 L869R/T798I cells, 5,000 cells each were seeded to a white clear bottom 96 well plate (Corning) 24 hours before the cells were treated with the compounds. Example Compounds were diluted in dimethylsulfoxide (3-fold diluted, total 11 concentrations) and 0.5 μL each was injected so that the final concentration was 0.2 nM to 10 μM. For the measurement of living cells, the cells were stored at room temperature for 10 minutes using the CellTiter-Glo cell viability reagent (Promega) after 72 hours after the treatment of Example Compounds, and then the luminescence intensity was measured using the reader (SynergyNeo, Biotek). Each test was repeated twice.
(§2) The result value was calculated as a cell growth rate (%) compared to a control group, and the GI50 values were calculated using the software (GraphPad Prism version 8.0), and the results are shown in Table 19 below.

Ba/F3 HER2 WT cells = assay: Inhibition of transduced Ba/F3 cell proliferation, HER2 WT; assay type: cell-based; settings: Mus musculus, BaF3, 72 hours, CellTiter-Glo
Description: as §1, §2

Ba/F3 HER2 L755S cells = assay: Inhibition of transduced Ba/F3 cell proliferation, HER2 L755S; assay type: cell-based; settings: Mus musculus, BaF3, 72 hours, CellTiter-Glo
Description: as §1, §2

Ba/F3 HER2 L755P cells = assay: Inhibition of transduced Ba/F3 cell proliferation, HER2 L755P; assay type: cell-based; settings: Mus musculus, BaF3, 72 hours, CellTiter-Glo
Description: as §1, §2

[1] = system: Ba/F3 HER2 L869R/T798I cells; assay: Inhibition of transduced Ba/F3 cell proliferation, HER2 L869R/T798I; assay type: cell-based; settings: Mus musculus, BaF3, 72 hours, CellTiter-Glo
Description: as §1, §2

HER2 mutant cancers = settings: cited from earlier work; for response of patients with HER2 mutation: phase 1 and 2 clinical trials; for objective response rate (ORR): SUMMIT clinical trial

T1 sequence (P04626 23-1255): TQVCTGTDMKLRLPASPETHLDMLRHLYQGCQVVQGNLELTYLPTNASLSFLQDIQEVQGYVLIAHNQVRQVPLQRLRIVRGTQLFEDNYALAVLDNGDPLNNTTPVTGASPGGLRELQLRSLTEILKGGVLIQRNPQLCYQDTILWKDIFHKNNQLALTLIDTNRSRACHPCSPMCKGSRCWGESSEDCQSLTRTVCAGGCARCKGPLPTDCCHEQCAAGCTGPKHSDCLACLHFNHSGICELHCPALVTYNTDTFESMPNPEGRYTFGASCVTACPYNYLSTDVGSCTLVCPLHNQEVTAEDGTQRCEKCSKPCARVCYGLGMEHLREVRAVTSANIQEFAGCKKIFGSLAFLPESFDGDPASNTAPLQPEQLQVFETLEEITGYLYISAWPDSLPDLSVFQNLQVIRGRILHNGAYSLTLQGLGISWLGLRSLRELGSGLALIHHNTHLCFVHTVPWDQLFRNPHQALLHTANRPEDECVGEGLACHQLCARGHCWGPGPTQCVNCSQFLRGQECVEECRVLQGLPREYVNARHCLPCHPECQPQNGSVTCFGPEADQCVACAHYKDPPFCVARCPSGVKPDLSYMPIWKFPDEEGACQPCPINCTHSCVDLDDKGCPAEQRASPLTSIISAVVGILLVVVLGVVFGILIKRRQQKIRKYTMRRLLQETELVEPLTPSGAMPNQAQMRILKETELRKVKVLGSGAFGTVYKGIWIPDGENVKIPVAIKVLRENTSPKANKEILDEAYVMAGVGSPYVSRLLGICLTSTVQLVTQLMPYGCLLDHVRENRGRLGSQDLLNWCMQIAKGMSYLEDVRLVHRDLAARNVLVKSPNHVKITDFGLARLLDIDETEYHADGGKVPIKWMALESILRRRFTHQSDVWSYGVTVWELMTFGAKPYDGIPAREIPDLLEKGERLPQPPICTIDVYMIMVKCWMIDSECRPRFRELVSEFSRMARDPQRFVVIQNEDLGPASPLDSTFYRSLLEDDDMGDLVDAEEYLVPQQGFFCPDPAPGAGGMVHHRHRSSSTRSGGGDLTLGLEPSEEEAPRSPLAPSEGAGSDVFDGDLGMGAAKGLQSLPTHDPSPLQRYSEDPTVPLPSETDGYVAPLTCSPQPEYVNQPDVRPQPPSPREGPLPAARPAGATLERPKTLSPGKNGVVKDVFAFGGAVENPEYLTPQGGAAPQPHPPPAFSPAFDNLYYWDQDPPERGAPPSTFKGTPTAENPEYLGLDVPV

| Compound | IC50 (HER2 enzyme) [nM] | GI50 (BT-474 cancer cells) [nM] | GI50 (N-87 cancer cells) [nM] | also measured |
| --- | --- | --- | --- | --- |
| COc1cc2ncnc(Nc3cc(Cl)c(Oc4ccccn4)cc3OC)c2cc1NC(=O)/C=C/[C@H]1CCCN1C [Example 33, (R,E)-N-(4-((5-chloro-2-methoxy-4-(pyridin-2-yloxy)phenyl)amino)-7-methoxyquinazolin-6-yl)-3-(1-methylpyrrolidin-2-yl)acrylamide] | ≤ 50 | ≤ 50 | ≤ 50 | – |
| COc1cc2ncnc(Nc3cc(Cl)c(Oc4cccc(F)c4)cc3OC)c2cc1NC(=O)/C(F)=C\[C@H]1CCCN1C [Example 42, (R,E)-N-(4-((5-chloro-4-(3-fluorophenoxy)-2-methoxyphenyl)amino)-7-methoxyquinazolin-6-yl)-2-fluoro-3-(1-methylpyrrolidin-2-yl)acrylamide] | ≤ 50 | ≤ 50 | ≤ 50 | GI50 (Ba/F3 HER2 T862A cells): ≤ 50 nM; GI50 (Ba/F3 HER2 WT cells): ≤ 50 nM; GI50 (Ba/F3 HER2 L755S cells): ≤ 50 nM; GI50 (Ba/F3 HER2 L755P cells): ≤ 50 nM; GI50 [1]: ≤ 50 nM |
| COc1cc2ncnc(Nc3cc(F)c(Oc4ccn5ncnc5c4)cc3OC)c2cc1NC(=O)/C(F)=C/[C@H]1CCCN1C [Example 50, (R,Z)—N-(4-((4-([1,2,4]triazolo[1,5-a]pyridin-7-yloxy)-5-fluoro-2-methoxyphenyl)amino)-7-methoxyquinazolin-6-yl)-2-fluoro-3-(1-methylpyrrolidin-2-yl)acrylamide] | ≤ 50 | ≤ 50 | ≤ 50 | GI50 (Ba/F3 HER2 T862A cells): ≤ 50 nM; GI50 (Ba/F3 HER2 WT cells): ≤ 50 nM; GI50 (Ba/F3 HER2 L755S cells): ≤ 50 nM; GI50 (Ba/F3 HER2 L755P cells): ≤ 50 nM; GI50 [1]: ≤ 50 nM |
| COc1cc2ncnc(Nc3cc(C)c(Oc4ccn5ncnc5c4)cc3OC)c2cc1NC(=O)/C(F)=C/[C@H]1CCCN1C [Example 111, (R,Z)—N-(4-((4-([1,2,4]triazolo[1,5-a]pyridin-7-yloxy)-2-methoxy-5-methylphenyl)amino)-7-methoxyquinazolin-6-yl)-2-fluoro-3-(1-methylpyrrolidin-2-yl)acrylamide] | ≤ 50 | ≤ 50 | ≤ 50 | – |
| COc1cc2ncnc(Nc3cc(Cl)c(Oc4ccn5ncnc5c4)cc3OC)c2cc1NC(=O)/C(F)=C/[C@H]1CCCN1C [Example 128, (R,Z)—N-(4-((4-([1,2,4]triazolo[1,5-a]pyridin-7-yloxy)-5-chloro-2-methoxyphenyl)amino)-7-methoxyquinazolin-6-yl)-2-fluoro-3-(1-methylpyrrolidin-2-yl)acrylamide] | ≤ 50 | ≤ 50 | ≤ 50 | GI50 (Ba/F3 HER2 T862A cells): ≤ 50 nM; GI50 (Ba/F3 HER2 WT cells): ≤ 50 nM; GI50 (Ba/F3 HER2 L755S cells): ≤ 50 nM; GI50 (Ba/F3 HER2 L755P cells): ≤ 50 nM; GI50 [1]: ≤ 50 nM |
| COc1cc2ncnc(Nc3ccc(F)c(Cl)c3)c2cc1NC(=O)/C=C/CN1CCCCC1 [dacomitinib] | – | – | – | response of patients with HER2 mutation (HER2 mutant cancers): partial responses |
| CCOc1cc2ncc(C#N)c(Nc3ccc(OCc4ccccn4)c(Cl)c3)c2cc1NC(=O)/C=C/CN(C)C [neratinib] | – | – | – | objective response rate (ORR) (HER2 mutant cancers; HER2 mutant breast cancer patients): 24%; objective response rate (ORR) (HER2 mutant cancers; HER2 mutant lung cancer patients): 3.8%; objective response rate (ORR) (HER2 mutant cancers; other cancers having HER2 mutations): 0%; response of patients with HER2 mutation (HER2 mutant cancers): partial responses |

Now from value to molecule, other results behind:

| IC50 (HER2 enzyme) [nM] | GI50 (BT-474 cancer cells) [nM] | GI50 (N-87 cancer cells) [nM] | Compound | also measured |
| --- | --- | --- | --- | --- |
| ≤ 50 | ≤ 50 | ≤ 50 | C=CC(=O)N1CCC(Nc2cc3c(Nc4cc(Cl)c(Oc5cccc(F)c5)cc4OC)ncnc3cc2OC)CC1 [Example 2, 1-(4-((4-((5-chloro-4-(3-fluorophenoxy)-2-methoxyphenyl)amino)-7-methoxyquinazolin-6-yl)amino)piperidin-1-yl)prop-2-en-1-one] | – |
| ≤ 50 | ≤ 50 | ≤ 50 | C=CC(=O)N1CCC(Oc2cc3c(Nc4cc(Cl)c(Oc5cccc(F)c5)cc4OC)ncnc3cc2OC)CC1 [Example 8, 1-(4-((4-((5-chloro-4-(3-fluorophenoxy)-2-methoxyphenyl)amino)-7-methoxyquinazolin-6-yl)oxy)piperidin-1-yl)prop-2-en-1-one] | – |
| ≤ 50 | ≤ 50 | ≤ 50 | COc1cc2ncnc(Nc3cc(Cl)c(Oc4cccc(F)c4)cc3OC)c2cc1NC(=O)/C=C/CN(C)C [Example 25, (E)-N-(4-((5-chloro-4-(3-fluorophenoxy)-2-methoxyphenyl)amino)-7-methoxyquinazolin-6-yl)-4-(dimethylamino)but-2-enamide] | – |
| ≤ 50 | ≤ 50 | ≤ 50 | COc1cc2ncnc(Nc3cc(C)c(Oc4ccn5ncnc5c4)cc3OC)c2cc1NC(=O)/C=C/[C@H]1CCCN1C [Example 29, (R,E)-N-(4-((4-([1,2,4]triazolo[1,5-a]pyridin-7-yloxy)-2-methoxy-5-methylphenyl)amino)-7-methoxyquinazolin-6-yl)-3-(1-methylpyrrolidin-2-yl)acrylamide] | – |
| ≤ 50 | ≤ 50 | ≤ 50 | COc1cc2ncnc(Nc3cc(Cl)c(Oc4cccc(F)c4)cc3OC)c2cc1NC(=O)/C=C/[C@H]1CCCN1C [Example 30, (R,E)-N-(4-((5-chloro-4-(3-fluorophenoxy)-2-methoxyphenyl)amino)-7-methoxyquinazolin-6-yl)-3-(1-methylpyrrolidin-2-yl)acrylamide] | – |
